Source: patent publication US4874856A, “3-(substituted)propenyl-7-(aminothiazolylacetamido) ceph-3-em-4-carboxylic acids and esters thereof” (Bristol-Myers Company, priority 1987, dated 1989)
In brackets after ≈: the same amount, converted by molar mass. Like-named read-outs stand apart in the source and are kept apart here.

Tests used:
Assay in all cases: In vitro MIC, Mueller-Hinton agar, inoculum 10^6 cells/ml
Assay type in all cases: cell-based
Proteus vulgaris = tested on: Proteus vulgaris
Excerpt: (§1) Table 6 is a comparison of the in vitro antibacterial activities of Compound 29 and the vinyl homolog thereof FK-482 against clinically important pathogens. Thirty-seven organisms were more than 4-fold more susceptible to Compound 29 than to FK-482. FK-482 has the following formula and is described by Takaya, et al. in U.S. Pat. No. 4,559,334 patented Dec. 17, 1985 (filed Oct. 20, 1983). [drawing 14]
(§2) *; Geometric mean of MIC (μg/ml)
(§3) Mueller-Hinton agar Inoculum size; 10^6 cells/ml

Serratia marcescens = tested on: Serratia marcescens
Excerpt: as §1, §2, §3

Enterobacter aerogenes = conditions: Klebsiella aerogenes
Excerpt: as §1, §2, §3

Enterobacter cloacae = tested on: Enterobacter cloacae
Excerpt: as §1, §2, §3

Serratia species = tested on: Serratia species
Excerpt: as §1, §2, §3

Morganella morganii = tested on: Morganella morganii
Excerpt: as §1, §2, §3

Providencia rettgeri = tested on: Providencia rettgeri
Excerpt: as §1, §2, §3

Citrobacter freundii = tested on: Citrobacter freundii
Excerpt: as §1, §2, §3

Proteus mirabilis = tested on: Proteus mirabilis
Excerpt: as §1, §2, §3

C=CC1=C(C(=O)O)N2C(=O)[C@@H](NC(=O)/C(=N\O)c3csc(N)n3)[C@H]2SC1 [FK-482, reference compound]
MIC (Proteus vulgaris; (GM) of the Proteus vulgaris strains, read-out: Geometric mean of MIC): 6.3 µg/mL (≈ 15.9 µM)
MIC (Proteus vulgaris; strain A 9436, read-out: MIC): 0.4 µg/mL (≈ 1.01 µM)
MIC (Proteus vulgaris; strain A 9526, read-out: MIC): 25 µg/mL (≈ 63.2 µM)
MIC (Proteus vulgaris; strain A 9699, read-out: MIC): 25 µg/mL (≈ 63.2 µM)
MIC (Proteus vulgaris; strain AKH-26, read-out: MIC): > 50 µg/mL
MIC (Proteus vulgaris; strain HX-19 MS-1, read-out: MIC): 0.8 µg/mL (≈ 2.02 µM)
MIC (Proteus vulgaris; strain OX-19 MS-1, read-out: MIC): 3.1 µg/mL (≈ 7.84 µM)
MIC (Serratia marcescens; (GM) of the Serratia marcescens strains, read-out: Geometric mean of MIC): 31 µg/mL (≈ 78.4 µM)
MIC (Serratia marcescens; strain A20019, read-out: MIC): 12.5 µg/mL (≈ 31.6 µM)
MIC (Serratia marcescens; strain A20222, read-out: MIC): 25 µg/mL (≈ 63.2 µM)
MIC (Serratia marcescens; strain A20333, read-out: MIC): > 50 µg/mL
MIC (Serratia marcescens; strain A20334, read-out: MIC): > 50 µg/mL
MIC (Serratia marcescens; strain A20335, read-out: MIC): 12.5 µg/mL (≈ 31.6 µM)
MIC (Serratia marcescens; strain A20336, read-out: MIC): 12.5 µg/mL (≈ 31.6 µM)
MIC (Serratia marcescens; strain A20442, read-out: MIC): 3.1 µg/mL (≈ 7.84 µM)
MIC (Serratia marcescens; strain A20459, read-out: MIC): > 50 µg/mL
MIC (Serratia marcescens; strain A20460, read-out: MIC): 50 µg/mL (≈ 126 µM)
MIC (Serratia marcescens; strain A20461, read-out: MIC): > 50 µg/mL
MIC (Enterobacter aerogenes; (GM) of the Enterobacter aerogenes strains, read-out: Geometric mean of MIC): 9.8 µg/mL (≈ 24.8 µM)
MIC (Enterobacter aerogenes; strain A20940, read-out: MIC): > 50 µg/mL
MIC (Enterobacter aerogenes; strain A20941, read-out: MIC): 6.3 µg/mL (≈ 15.9 µM)
MIC (Enterobacter aerogenes; strain A20943, read-out: MIC): 6.3 µg/mL (≈ 15.9 µM)
MIC (Enterobacter aerogenes; strain A20958, read-out: MIC): 6.3 µg/mL (≈ 15.9 µM)
MIC (Enterobacter aerogenes; strain A20961, read-out: MIC): 12.5 µg/mL (≈ 31.6 µM)
MIC (Enterobacter aerogenes; strain A20966, read-out: MIC): 6.3 µg/mL (≈ 15.9 µM)
MIC (Enterobacter aerogenes; strain A20971, read-out: MIC): 6.3 µg/mL (≈ 15.9 µM)
MIC (Enterobacter aerogenes; strain A20985, read-out: MIC): > 50 µg/mL
MIC (Enterobacter aerogenes; strain A20994, read-out: MIC): 25 µg/mL (≈ 63.2 µM)
MIC (Enterobacter aerogenes; strain A20996, read-out: MIC): 3.1 µg/mL (≈ 7.84 µM)
MIC (Enterobacter aerogenes; strain A21013, read-out: MIC): 6.3 µg/mL (≈ 15.9 µM)
MIC (Enterobacter aerogenes; strain A21036, read-out: MIC): 50 µg/mL (≈ 126 µM)
MIC (Enterobacter aerogenes; strain A21037, read-out: MIC): 3.1 µg/mL (≈ 7.84 µM)
MIC (Enterobacter aerogenes; strain A21038, read-out: MIC): 1.6 µg/mL (≈ 4.05 µM)
MIC (Enterobacter aerogenes; strain A21039, read-out: MIC): 6.3 µg/mL (≈ 15.9 µM)
MIC (Enterobacter aerogenes; strain A21043, read-out: MIC): 25 µg/mL (≈ 63.2 µM)
MIC (Enterobacter aerogenes; strain A21044, read-out: MIC): 25 µg/mL (≈ 63.2 µM)
MIC (Enterobacter aerogenes; strain A21118, read-out: MIC): > 50 µg/mL
MIC (Enterobacter aerogenes; strain A21120, read-out: MIC): 6.3 µg/mL (≈ 15.9 µM)
MIC (Enterobacter aerogenes; strain A21130-1, read-out: MIC): 6.3 µg/mL (≈ 15.9 µM)
MIC (Enterobacter aerogenes; strain A21131, read-out: MIC): 6.3 µg/mL (≈ 15.9 µM)
MIC (Enterobacter aerogenes; strain A21152, read-out: MIC): 1.6 µg/mL (≈ 4.05 µM)
MIC (Enterobacter aerogenes; strain A21155, read-out: MIC): 6.3 µg/mL (≈ 15.9 µM)
MIC (Enterobacter aerogenes; strain A21158, read-out: MIC): 6.3 µg/mL (≈ 15.9 µM)
MIC (Enterobacter aerogenes; strain A21503, read-out: MIC): 6.3 µg/mL (≈ 15.9 µM)
MIC (Enterobacter cloacae; (GM) of the Enterobacter cloacae strains, read-out: Geometric mean of MIC): 21 µg/mL (≈ 53.1 µM)
MIC (Enterobacter cloacae; strain A 9655, read-out: MIC): > 50 µg/mL
MIC (Enterobacter cloacae; strain A 9659, read-out: MIC): > 50 µg/mL
MIC (Enterobacter cloacae; strain A20344, read-out: MIC): > 50 µg/mL
MIC (Enterobacter cloacae; strain A20364, read-out: MIC): 6.3 µg/mL (≈ 15.9 µM)
MIC (Enterobacter cloacae; strain A20464, read-out: MIC): 3.1 µg/mL (≈ 7.84 µM)
MIC (Enterobacter cloacae; strain A20650, read-out: MIC): 0.8 µg/mL (≈ 2.02 µM)
MIC (Enterobacter cloacae; strain A22551, read-out: MIC): > 50 µg/mL
MIC (Serratia species; (GM) of the Serratia species strains, read-out: Geometric mean of MIC): > 50 µg/mL
MIC (Serratia species; strain 6-330, read-out: MIC): 25 µg/mL (≈ 63.2 µM)
MIC (Serratia species; strain 6-427, read-out: MIC): 25 µg/mL (≈ 63.2 µM)
MIC (Serratia species; strain 6-920, read-out: MIC): > 50 µg/mL
MIC (Serratia species; strain 7-255, read-out: MIC): > 50 µg/mL
MIC (Serratia species; strain 7-454, read-out: MIC): > 50 µg/mL
MIC (Serratia species; strain 7-2322, read-out: MIC): > 50 µg/mL
MIC (Serratia species; strain 8-185, read-out: MIC): > 50 µg/mL
MIC (Serratia species; strain 8-513, read-out: MIC): > 50 µg/mL
MIC (Serratia species; strain 8-785, read-out: MIC): > 50 µg/mL
MIC (Serratia species; strain 8-1537, read-out: MIC): > 50 µg/mL
MIC (Serratia species; strain 9-50, read-out: MIC): > 50 µg/mL
MIC (Serratia species; strain 9-690, read-out: MIC): > 50 µg/mL
MIC (Morganella morganii; (GM) of the Morganella morganii strains, read-out: Geometric mean of MIC): 25 µg/mL (≈ 63.2 µM)
MIC (Morganella morganii; IFO3843, strain IFO 3843 MS-1, read-out: MIC): 12.5 µg/mL (≈ 31.6 µM)
MIC (Morganella morganii; strain A 9636, read-out: MIC): > 50 µg/mL
MIC (Morganella morganii; strain A20455, read-out: MIC): 12.5 µg/mL (≈ 31.6 µM)
MIC (Providencia rettgeri; (GM) of the Providencia rettgeri strains, read-out: Geometric mean of MIC): 0.07 µg/mL (≈ 0.177 µM)
MIC (Providencia rettgeri; IFO3850, strain IFO 3850 MS-1, read-out: MIC): 0.013 µg/mL (≈ 0.0329 µM)
MIC (Providencia rettgeri; strain A 9637, read-out: MIC): < 0.0063 µg/mL
MIC (Providencia rettgeri; strain A15167 (first line), read-out: MIC): 0.013 µg/mL (≈ 0.0329 µM)
MIC (Providencia rettgeri; strain A15167 (second line), read-out: MIC): 0.1 µg/mL (≈ 0.253 µM)
MIC (Providencia rettgeri; strain A20645, read-out: MIC): 6.3 µg/mL (≈ 15.9 µM)
MIC (Providencia rettgeri; strain A20915, read-out: MIC): 3.1 µg/mL (≈ 7.84 µM)
MIC (Providencia rettgeri; strain A20920, read-out: MIC): 0.013 µg/mL (≈ 0.0329 µM)
MIC (Providencia rettgeri; strain A20921, read-out: MIC): 0.025 µg/mL (≈ 0.0632 µM)
MIC (Providencia rettgeri; strain A21205, read-out: MIC): 0.1 µg/mL (≈ 0.253 µM)
MIC (Providencia rettgeri; strain A21270, read-out: MIC): 0.1 µg/mL (≈ 0.253 µM)
MIC (Citrobacter freundii; (GM) of the Citrobacter freundii strains, read-out: Geometric mean of MIC): 4.1 µg/mL (≈ 10.4 µM)
MIC (Citrobacter freundii; strain A21312, read-out: MIC): > 50 µg/mL
MIC (Citrobacter freundii; strain A22140, read-out: MIC): 3.1 µg/mL (≈ 7.84 µM)
MIC (Citrobacter freundii; strain A22141, read-out: MIC): 3.1 µg/mL (≈ 7.84 µM)
MIC (Citrobacter freundii; strain A22142, read-out: MIC): 0.8 µg/mL (≈ 2.02 µM)
MIC (Citrobacter freundii; strain A22160, read-out: MIC): 6.3 µg/mL (≈ 15.9 µM)
MIC (Citrobacter freundii; strain A22161, read-out: MIC): 0.8 µg/mL (≈ 2.02 µM)
MIC (Citrobacter freundii; strain A22166, read-out: MIC): 3.1 µg/mL (≈ 7.84 µM)
MIC (Citrobacter freundii; strain A22175, read-out: MIC): 0.8 µg/mL (≈ 2.02 µM)
MIC (Citrobacter freundii; strain A22176, read-out: MIC): 3.1 µg/mL (≈ 7.84 µM)
MIC (Citrobacter freundii; strain A22177, read-out: MIC): 50 µg/mL (≈ 126 µM)
MIC (Proteus mirabilis; (GM) of the Proteus mirabilis strains, read-out: Geometric mean of MIC): 0.14 µg/mL (≈ 0.354 µM)
MIC (Proteus mirabilis; IFO3849, strain IFO 3849 MS-1, read-out: MIC): 0.2 µg/mL (≈ 0.506 µM)
MIC (Proteus mirabilis; strain A 9554, read-out: MIC): 0.2 µg/mL (≈ 0.506 µM)
MIC (Proteus mirabilis; strain A 9702, read-out: MIC): 0.1 µg/mL (≈ 0.253 µM)
MIC (Proteus mirabilis; strain A 9716, read-out: MIC): 0.2 µg/mL (≈ 0.506 µM)
MIC (Proteus mirabilis; strain A20119, read-out: MIC): 0.1 µg/mL (≈ 0.253 µM)
MIC (Proteus mirabilis; strain A20342, read-out: MIC): 0.2 µg/mL (≈ 0.506 µM)
MIC (Proteus mirabilis; strain A20454, read-out: MIC): 0.1 µg/mL (≈ 0.253 µM)
MIC (Proteus mirabilis; strain A21222, read-out: MIC): 0.1 µg/mL (≈ 0.253 µM)
